Test results taken from patent publication US20240132484A1, “BROAD SPECTRUM ANTIVIRAL COMPOUNDS TARGETING THE SKI COMPLEX” (priority 2020, published 2024).
Where “and” joins values, the source holds several entries; their conditions need not be identical. Equal entries are not always repeated. Entries after “also recorded” stand apart in the source; their conditions may differ. Where two headings read alike, the source gives them in different places.

Assays:
SARS2 = type: cell-based, SARS-CoV-2; details: for Percentage Infection Relative to Appropriate DMSO Control with Avg Background Subtraction: Nunc Celigo plates; for Percentage Inhibition Average 1 μM / Screening data (Relative infection to DMSO controls) Average 1 μM: SARS2, 1 μM; for Screening data (Relative infection to DMSO controls) Average 1 μM / Screening data (Relative infection to DMSO controls) Average 5 μM / Screening data (Relative infection to DMSO controls) Average 10 μM / Screening data (Relative infection to DMSO controls) Average 25 μM / Screening data (Relative infection to DMSO controls) Average 50 μM / Average (relative infection to DMSO over the 5 tested concentrations): 100=DMSO control; for Percentage Inhibition Average 5 μM / Screening data (Relative infection to DMSO controls) Average 5 μM: SARS2, 5 μM; for Percentage Inhibition Average 10 μM / Screening data (Relative infection to DMSO controls) Average 10 μM: SARS2, 10 μM; for Percentage Inhibition Average 25 μM / Screening data (Relative infection to DMSO controls) Average 25 μM: SARS2, 25 μM; for Percentage Inhibition Average 50 μM / Screening data (Relative infection to DMSO controls) Average 50 μM: SARS2, 50 μM; for Average (relative infection to DMSO over the 5 tested concentrations): SARS2, average over 1 to 50 uM; for Percentage Infection Relative to Appropriate DMSO Control: avg background subtraction
cells (nuclei count) = details: for Relative cell count to DMSO controls, Average 1 μM / Relative cell count to DMSO controls, Average 5 μM / Relative cell count to DMSO controls, Average 10 μM / Relative cell count to DMSO controls, Average 25 μM / Relative cell count to DMSO controls, Average 50 μM: toxicity data, 100=DMSO control; for Toxicity Data, Average, Mean percentage relative to DMSO control: Average of Exp 1 (SMW491) and Exp 2 (SMW492); for Relative cell count to DMSO controls, Average (for correlation analysis): average value over the 5 tested concentrations (1 to 50 uM)

Structure (SMILES): COc1ccc(CNCCc2ccccc2F)c(OCC(O)CN2CCN(C)CC2)c1 (racemic) [SILCS41]
- SARS2 antiviral activity (SARS2): better activity than the original compound; also recorded: improved properties over UMB18g
- Percentage Infection Relative to Appropriate DMSO Control with Avg Background Subtraction (SARS2; Exp 1 (SMW491), 1 uM): 92.14% and 78.53%
- Percentage Infection Relative to Appropriate DMSO Control with Avg Background Subtraction (SARS2; Exp 1 (SMW491), 5 uM): 20.40% and 20.73%
- Percentage Infection Relative to Appropriate DMSO Control with Avg Background Subtraction (SARS2; Exp 1 (SMW491), 10 uM): 2.55% and 1.51%
- Percentage Infection Relative to Appropriate DMSO Control with Avg Background Subtraction (SARS2; Exp 1 (SMW491), 25 uM): 2.26% and 4.77%
- Percentage Infection Relative to Appropriate DMSO Control with Avg Background Subtraction (SARS2; Exp 1 (SMW491), 50 uM): 5.27% and 3.84%
- Percentage Infection Relative to Appropriate DMSO Control with Avg Background Subtraction (SARS2; Exp 2 (SMW492), 1 uM): 11.86% and 10.73%
- Percentage Infection Relative to Appropriate DMSO Control with Avg Background Subtraction (SARS2; Exp 2 (SMW492), 5 uM): 15.34% and 12.91%
- Percentage Infection Relative to Appropriate DMSO Control with Avg Background Subtraction (SARS2; Exp 2 (SMW492), 10 uM): 1.08% and 2.35%
- Percentage Infection Relative to Appropriate DMSO Control with Avg Background Subtraction (SARS2; Exp 2 (SMW492), 25 uM): 1.58% and 3.10%
- Percentage Infection Relative to Appropriate DMSO Control with Avg Background Subtraction (SARS2; Exp 2 (SMW492), 50 uM): 8.27% and 6.25%
- Percentage Inhibition Average 1 μM (SARS2): 51.68%
- Screening data (Relative infection to DMSO controls) Average 1 μM (SARS2): 48.32
- Percentage Inhibition Average 5 μM (SARS2): 82.65%
- Screening data (Relative infection to DMSO controls) Average 5 μM (SARS2): 17.35
- Percentage Inhibition Average 10 μM (SARS2): 98.13%
- Screening data (Relative infection to DMSO controls) Average 10 μM (SARS2): 1.87
- Percentage Inhibition Average 25 μM (SARS2): 97.07%
- Screening data (Relative infection to DMSO controls) Average 25 μM (SARS2): 2.93
- Percentage Inhibition Average 50 μM (SARS2): 94.09%
- Screening data (Relative infection to DMSO controls) Average 50 μM (SARS2): 5.91
- Average (relative infection to DMSO over the 5 tested concentrations) (SARS2): 15.28
- Infection Data, Average, Mean (SARS2; average of Exp 1-2 (SMW491, SMW492), n 4, 1 uM): 48.32%
- Infection Data, Average, Mean (SARS2; average of Exp 1-2 (SMW491, SMW492), n 4, 5 uM): 17.35%
- Infection Data, Average, Mean (SARS2; average of Exp 1-2 (SMW491, SMW492), n 4, 10 uM): 1.87%
- Infection Data, Average, Mean (SARS2; average of Exp 1-2 (SMW491, SMW492), n 4, 25 uM): 2.93%
- Infection Data, Average, Mean (SARS2; average of Exp 1-2 (SMW491, SMW492), n 4, 50 uM): 5.91%
- Relative cell count to DMSO controls, Average 1 μM (cells (nuclei count)): 118.33
- Relative cell count to DMSO controls, Average 5 μM (cells (nuclei count)): 139.55
- Relative cell count to DMSO controls, Average 10 μM (cells (nuclei count)): 124.03
- Relative cell count to DMSO controls, Average 25 μM (cells (nuclei count)): 118.34
- Relative cell count to DMSO controls, Average 50 μM (cells (nuclei count)): 101.49
- Toxicity Data, Average, Mean percentage relative to DMSO control (cells (nuclei count); n=4, 1 uM): 118.33%
- Toxicity Data, Average, Mean percentage relative to DMSO control (cells (nuclei count); n=4, 5 uM): 139.55%
- Toxicity Data, Average, Mean percentage relative to DMSO control (cells (nuclei count); n=4, 10 uM): 124.03%
- Toxicity Data, Average, Mean percentage relative to DMSO control (cells (nuclei count); n=4, 25 uM): 118.34%
- Toxicity Data, Average, Mean percentage relative to DMSO control (cells (nuclei count); n=4, 50 uM): 101.49%
- Relative cell count to DMSO controls, Average (for correlation analysis) (cells (nuclei count)): 120.35

Structure (SMILES): CCOc1cccc(CNCCc2ccccc2F)c1OCC(O)CN1CCN(C)CC1 (centres unmarked) [SILCS3]
- Percentage Infection Relative to Appropriate DMSO Control (SARS2; 1 uM, Exp 1 (SMW454), single wells): 102.18% and 96.08% and 79.31%
- Percentage Infection Relative to Appropriate DMSO Control (SARS2; 5 uM, Exp 1 (SMW454), single wells): 110.38% and 99.87% and 94.40%
- Percentage Infection Relative to Appropriate DMSO Control (SARS2; 10 uM, Exp 1 (SMW454), single wells): 98.93% and 87.99% and 82.55%
- Percentage Infection Relative to Appropriate DMSO Control (SARS2; 25 uM, Exp 1 (SMW454), single wells): 73.36% and 69.10% and 58.07%
- Percentage Infection Relative to Appropriate DMSO Control (SARS2; 50 uM, Exp 1 (SMW454), single wells): 38.76% and 39.55% and 35.10%
- Infection Data, Average, Mean (SARS2; Average of Exp 1-3, n 9, 1 uM): 77.07%
- Infection Data, Average, Mean (SARS2; Average of Exp 1-3, n 9, 5 uM): 48.45%
- Infection Data, Average, Mean (SARS2; Average of Exp 1-3, n 9, 10 uM): 46.02%
- Infection Data, Average, Mean (SARS2; Average of Exp 1-3, n 9, 25 uM): 22.24%
- Infection Data, Average, Mean (SARS2; Average of Exp 1-3, n 9, 50 uM): 12.53%
- Percentage Infection Relative to Appropriate DMSO Control (SARS2; Exp 2 (SMW466), 1 uM): 97.83% and 85.97% and 85.21%
- Percentage Infection Relative to Appropriate DMSO Control (SARS2; Exp 2 (SMW466), 5 uM): 25.85% and 18.37% and 25.06%
- Percentage Infection Relative to Appropriate DMSO Control (SARS2; Exp 2 (SMW466), 10 uM): 15.71% and 12.38% and 8.39%
- Percentage Infection Relative to Appropriate DMSO Control (SARS2; Exp 2 (SMW466), 25 uM): −2.25% and −2.53% and 0.99%
- Percentage Infection Relative to Appropriate DMSO Control (SARS2; Exp 2 (SMW466), 50 uM): −2.52% and −3.00% and 0.03%
- Percentage Infection Relative to Appropriate DMSO Control (SARS2; Exp 3 (SMW480), 1 uM): 55.68% and 51.29% and 40.12%
- Percentage Infection Relative to Appropriate DMSO Control (SARS2; Exp 3 (SMW480), 25 uM): 6.43% and −0.12% and −2.91%
- Percentage Inhibition Average 1 μM (SARS2): 22.93%
- Screening data (Relative infection to DMSO controls) Average 1 μM (SARS2): 77.07
- Percentage Inhibition Average 5 μM (SARS2): 51.55%
- Screening data (Relative infection to DMSO controls) Average 5 μM (SARS2): 48.45
- Percentage Inhibition Average 10 μM (SARS2): 53.98%
- Screening data (Relative infection to DMSO controls) Average 10 μM (SARS2): 46.02
- Percentage Inhibition Average 25 μM (SARS2): 77.76%
- Screening data (Relative infection to DMSO controls) Average 25 μM (SARS2): 22.24
- Percentage Inhibition Average 50 μM (SARS2): 87.47%
- Screening data (Relative infection to DMSO controls) Average 50 μM (SARS2): 12.53
- Average (relative infection to DMSO over the 5 tested concentrations) (SARS2): 41.26
- Relative cell count to DMSO controls, Average 1 μM (cells (nuclei count)): 114.7
- Relative cell count to DMSO controls, Average 5 μM (cells (nuclei count)): 125.56
- Relative cell count to DMSO controls, Average 10 μM (cells (nuclei count)): 124.47
- Relative cell count to DMSO controls, Average 25 μM (cells (nuclei count)): 117.43
- Relative cell count to DMSO controls, Average 50 μM (cells (nuclei count)): 86.97
- Toxicity Data, Average, Mean (cells (nuclei count); Average of Exp 1-3, n 9, 1 uM): 114.70%
- Toxicity Data, Average, Mean (cells (nuclei count); Average of Exp 1-3, n 9, 5 uM): 125.56%
- Toxicity Data, Average, Mean (cells (nuclei count); Average of Exp 1-3, n 9, 10 uM): 124.47%
- Toxicity Data, Average, Mean (cells (nuclei count); Average of Exp 1-3, n 9, 25 uM): 117.43%
- Toxicity Data, Average, Mean (cells (nuclei count); Average of Exp 1-3, n 9, 50 uM): 86.97%
- Toxicity Data, nuclei count relative to DMSO controls (cells (nuclei count); Exp 1 (SMW454), 1 uM): 108.7% and 108.1% and 97.2%
- Toxicity Data, nuclei count relative to DMSO controls (cells (nuclei count); Exp 1 (SMW454), 5 uM): 105.8% and 104.1% and 93.5%
- Toxicity Data, nuclei count relative to DMSO controls (cells (nuclei count); Exp 1 (SMW454), 10 uM): 112.5% and 109.3% and 98.7%
- Toxicity Data, nuclei count relative to DMSO controls (cells (nuclei count); Exp 1 (SMW454), 25 uM): 102.5% and 101.9% and 95.9%
- Toxicity Data, nuclei count relative to DMSO controls (cells (nuclei count); Exp 1 (SMW454), 50 uM): 93.7% and 93.9% and 95.7%
- Toxicity Data, nuclei count relative to DMSO controls (cells (nuclei count); Exp 2 (SMW466), 1 uM): 110.2% and 122.4% and 99.6%
- Toxicity Data, nuclei count relative to DMSO controls (cells (nuclei count); Exp 2 (SMW466), 5 uM): 143.6% and 141.9% and 102.7%
- Toxicity Data, nuclei count relative to DMSO controls (cells (nuclei count); Exp 2 (SMW466), 10 uM): 139.8% and 146.3% and 105.1%
- Toxicity Data, nuclei count relative to DMSO controls (cells (nuclei count); Exp 2 (SMW466), 25 uM): 131.0% and 122.3% and 75.1%
- Toxicity Data, nuclei count relative to DMSO controls (cells (nuclei count); Exp 2 (SMW466), 50 uM): 81.8% and 76.6% and 53.5%
- Toxicity Data, nuclei count relative to DMSO controls (cells (nuclei count); Exp 3 (SMW480), 1 uM): 131.1% and 136.5% and 118.6%
- Toxicity Data, nuclei count relative to DMSO controls (cells (nuclei count); Exp 3 (SMW480), 5 uM): 154.5% and 147.8% and 136.1%
- Toxicity Data, nuclei count relative to DMSO controls (cells (nuclei count); Exp 3 (SMW480), 10 uM): 156.3% and 129.5% and 122.8%
- Toxicity Data, nuclei count relative to DMSO controls (cells (nuclei count); Exp 3 (SMW480), 25 uM): 157.9% and 155.8% and 114.5%
- Toxicity Data, nuclei count relative to DMSO controls (cells (nuclei count); Exp 3 (SMW480), 50 uM): 117.7% and 89.8% and 80.0%
- Relative cell count to DMSO controls, Average (for correlation analysis) (cells (nuclei count)): 113.83
